# Data from ChEMBL document CHEMBL3885881, “DrugMatrix”.
# Species on record: Rattus norvegicus
# Assay: DrugMatrix - Regimen: Daily Repeat
# Format: toxicity, organism-based, Sprague-Dawley
# Parameters: regimen Daily Repeat, gender Male, age 6-8 weeks
# Details: in vivo, po, route oral GAVAGE, vehicle .5 % CMC; for ABSOLUTE BASOPHIL / ABSOLUTE EOSINOPHIL / ABSOLUTE LYMPHOCYTE / ABSOLUTE MONOCYTE / ABSOLUTE SEGMENTED NEUTROPHIL / BASOPHIL / EOSINOPHIL / ERYTHROCYTE COUNT / HEMATOCRIT / HEMOGLOBIN / LEUKOCYTE COUNT / LYMPHOCYTE / MEAN CORPUSCULAR HEMOGLOBIN / MEAN CORPUSCULAR HEMOGLOBIN CONCENTRATION / MEAN CORPUSCULAR VOLUME / MONOCYTE / NEUTROPHIL / NUCLEATED RED BLOOD CELLS / PLATELET COUNT: tissue Blood; for ALANINE AMINOTRANSFERASE / ALBUMIN / ALKALINE PHOSPHATASE / ASPARTATE AMINOTRANSFERASE / BLOOD UREA NITROGEN / CARBON DIOXIDE / CHLORIDE / CHOLESTEROL / CREATINE PHOSPHOKINASE / CREATININE / GLUCOSE / LACTATE DEHYDROGENASE / LIPASE / PHOSPHORUS / POTASSIUM / SODIUM / TOTAL BILIRUBIN / TOTAL PROTEIN / URIC ACID: tissue Plasma
# [1] = 0 mg/kg, 72 h, dose level Control, time 3 day
# [2] = 0 mg/kg, 120 h, dose level Control, time 5 day
# [3] = 4.5 mg/kg, 72 h, dose level Low, time 3 day
smiles,measurement,setting,value
CC(C(=O)O)c1ccc(-c2ccccc2)c(F)c1 (centres undefined) [FLURBIPROFEN],ABSOLUTE BASOPHIL,[1],0 CELLS/uL
same,ABSOLUTE EOSINOPHIL,[1],222.83 CELLS/uL
same,ABSOLUTE LYMPHOCYTE,[1],14453 CELLS/uL
same,ABSOLUTE MONOCYTE,[1],0 CELLS/uL
same,ABSOLUTE SEGMENTED NEUTROPHIL,[1],1490.83 CELLS/uL
same,BASOPHIL,[1],0%
same,EOSINOPHIL,[1],1.33%
same,ERYTHROCYTE COUNT,[1],5.76 x10E6/uL
same,HEMATOCRIT,[1],36.52%
same,HEMOGLOBIN,[1],13.45 G/DL
same,LEUKOCYTE COUNT,[1],16.17 x10E3/uL
same,LYMPHOCYTE,[1],89.33%
same,MEAN CORPUSCULAR HEMOGLOBIN,[1],23.37 pg
same,MEAN CORPUSCULAR HEMOGLOBIN CONCENTRATION,[1],36.85 G/DL
same,MEAN CORPUSCULAR VOLUME,[1],63.47 fL
same,MONOCYTE,[1],0%
same,NEUTROPHIL,[1],9.33%
same,NUCLEATED RED BLOOD CELLS,[1],0 /100WBC
same,PLATELET COUNT,[1],1239.5 x10E3/uL
same,ALANINE AMINOTRANSFERASE,[1],43.83 u/L
same,ALBUMIN,[1],4.27 G/DL
same,ALKALINE PHOSPHATASE,[1],398.83 u/L
same,ASPARTATE AMINOTRANSFERASE,[1],81.17 u/L
same,BLOOD UREA NITROGEN,[1],17.67 mg/dL
same,CARBON DIOXIDE,[1],27.5 mmol/L
same,CHLORIDE,[1],99.17 MEQ/L
same,CHOLESTEROL,[1],74 mg/dL
same,CREATINE PHOSPHOKINASE,[1],331.5 u/L
same,CREATININE,[1],0.2 mg/dL
same,GLUCOSE,[1],171.33 mg/dL
same,LACTATE DEHYDROGENASE,[1],241.67 u/L
same,LIPASE,[1],9.5 u/L
same,PHOSPHORUS,[1],12.25 mg/dL
same,POTASSIUM,[1],6.33 MEQ/L
same,SODIUM,[1],141.28 MEQ/L
same,TOTAL BILIRUBIN,[1],0.15 mg/dL
same,TOTAL PROTEIN,[1],5.98 G/DL
same,URIC ACID,[1],1.63 mg/dL
same,ABSOLUTE BASOPHIL,[2],0 CELLS/uL
same,ABSOLUTE EOSINOPHIL,[2],148.67 CELLS/uL
same,ABSOLUTE LYMPHOCYTE,[2],16020.5 CELLS/uL
same,ABSOLUTE MONOCYTE,[2],29.17 CELLS/uL
same,ABSOLUTE SEGMENTED NEUTROPHIL,[2],1468.33 CELLS/uL
same,BASOPHIL,[2],0%
same,EOSINOPHIL,[2],1%
same,ERYTHROCYTE COUNT,[2],5.78 x10E6/uL
same,HEMATOCRIT,[2],35.77%
same,HEMOGLOBIN,[2],13.4 G/DL
same,LEUKOCYTE COUNT,[2],17.67 x10E3/uL
same,LYMPHOCYTE,[2],90.5%
same,MEAN CORPUSCULAR HEMOGLOBIN,[2],23.22 pg
same,MEAN CORPUSCULAR HEMOGLOBIN CONCENTRATION,[2],37.47 G/DL
same,MEAN CORPUSCULAR VOLUME,[2],61.92 fL
same,MONOCYTE,[2],0.17%
same,NEUTROPHIL,[2],8.33%
same,NUCLEATED RED BLOOD CELLS,[2],0.17 /100WBC
same,PLATELET COUNT,[2],1255.5 x10E3/uL
same,ALANINE AMINOTRANSFERASE,[2],46.5 u/L
same,ALBUMIN,[2],4.38 G/DL
same,ALKALINE PHOSPHATASE,[2],336 u/L
same,ASPARTATE AMINOTRANSFERASE,[2],76.5 u/L
same,BLOOD UREA NITROGEN,[2],20 mg/dL
same,CARBON DIOXIDE,[2],27.5 mmol/L
same,CHLORIDE,[2],101 MEQ/L
same,CHOLESTEROL,[2],71.33 mg/dL
same,CREATINE PHOSPHOKINASE,[2],231.83 u/L
same,CREATININE,[2],0.37 mg/dL
same,GLUCOSE,[2],168.83 mg/dL
same,LACTATE DEHYDROGENASE,[2],174 u/L
same,LIPASE,[2],8.67 u/L
same,PHOSPHORUS,[2],11.48 mg/dL
same,POTASSIUM,[2],6.82 MEQ/L
same,SODIUM,[2],143.8 MEQ/L
same,TOTAL BILIRUBIN,[2],0.2 mg/dL
same,TOTAL PROTEIN,[2],5.98 G/DL
same,URIC ACID,[2],1.83 mg/dL
same,ABSOLUTE BASOPHIL,[3],0 CELLS/uL
same,ABSOLUTE EOSINOPHIL,[3],292.33 CELLS/uL
same,ABSOLUTE LYMPHOCYTE,[3],14732.33 CELLS/uL
same,ABSOLUTE MONOCYTE,[3],0 CELLS/uL
same,ABSOLUTE SEGMENTED NEUTROPHIL,[3],2542 CELLS/uL
same,BASOPHIL,[3],0%
same,EOSINOPHIL,[3],1.67%
same,ERYTHROCYTE COUNT,[3],5.5 x10E6/uL
same,HEMATOCRIT,[3],34.7%
same,HEMOGLOBIN,[3],12.83 G/DL
same,LEUKOCYTE COUNT,[3],17.57 x10E3/uL
same,LYMPHOCYTE,[3],83.67%
same,MEAN CORPUSCULAR HEMOGLOBIN,[3],23.33 pg
same,MEAN CORPUSCULAR HEMOGLOBIN CONCENTRATION,[3],36.97 G/DL
same,MEAN CORPUSCULAR VOLUME,[3],63.03 fL
same,MONOCYTE,[3],0%
same,NEUTROPHIL,[3],14.67%
same,NUCLEATED RED BLOOD CELLS,[3],0 /100WBC
same,PLATELET COUNT,[3],1184.67 x10E3/uL
same,ALANINE AMINOTRANSFERASE,[3],49.67 u/L
same,ALBUMIN,[3],3.57 G/DL
same,ALKALINE PHOSPHATASE,[3],319 u/L
same,ASPARTATE AMINOTRANSFERASE,[3],69.33 u/L
same,BLOOD UREA NITROGEN,[3],13.33 mg/dL
same,CARBON DIOXIDE,[3],30 mmol/L
same,CHLORIDE,[3],99.67 MEQ/L
same,CHOLESTEROL,[3],69 mg/dL
same,CREATINE PHOSPHOKINASE,[3],219.67 u/L
same,CREATININE,[3],0.25 mg/dL
same,GLUCOSE,[3],168.33 mg/dL
same,LACTATE DEHYDROGENASE,[3],123.67 u/L
same,LIPASE,[3],8.33 u/L
same,PHOSPHORUS,[3],12.13 mg/dL
same,POTASSIUM,[3],6.57 MEQ/L
same,SODIUM,[3],143.2 MEQ/L
same,TOTAL BILIRUBIN,[3],0.23 mg/dL
same,TOTAL PROTEIN,[3],5.37 G/DL
same,URIC ACID,[3],1.77 mg/dL
